In brackets after ≈: the same amount, converted by molar mass. Read-outs that look alike come from different tables or passages of the source.
Tests used:
N. gonorrhoeae WHO L = experiment: Liquid broth MIC in Fastidious broth; settings: Neisseria gonorrhoeae
[1] = biological target: T1, PBP1a from Acinetobacter baumannii (ATCC 19606) (Acinetobacter baumannii, UniProt A0ABX6CK30); experiment: Bocillin-FL fluorescence polarization competition binding, A. baumannii PBP1a; settings: fluorescence polarization competition binding assay using Bocillin-FL; read-out: A. baumannii PBP1a Potency
T1 sequence (A0ABX6CK30 1-851): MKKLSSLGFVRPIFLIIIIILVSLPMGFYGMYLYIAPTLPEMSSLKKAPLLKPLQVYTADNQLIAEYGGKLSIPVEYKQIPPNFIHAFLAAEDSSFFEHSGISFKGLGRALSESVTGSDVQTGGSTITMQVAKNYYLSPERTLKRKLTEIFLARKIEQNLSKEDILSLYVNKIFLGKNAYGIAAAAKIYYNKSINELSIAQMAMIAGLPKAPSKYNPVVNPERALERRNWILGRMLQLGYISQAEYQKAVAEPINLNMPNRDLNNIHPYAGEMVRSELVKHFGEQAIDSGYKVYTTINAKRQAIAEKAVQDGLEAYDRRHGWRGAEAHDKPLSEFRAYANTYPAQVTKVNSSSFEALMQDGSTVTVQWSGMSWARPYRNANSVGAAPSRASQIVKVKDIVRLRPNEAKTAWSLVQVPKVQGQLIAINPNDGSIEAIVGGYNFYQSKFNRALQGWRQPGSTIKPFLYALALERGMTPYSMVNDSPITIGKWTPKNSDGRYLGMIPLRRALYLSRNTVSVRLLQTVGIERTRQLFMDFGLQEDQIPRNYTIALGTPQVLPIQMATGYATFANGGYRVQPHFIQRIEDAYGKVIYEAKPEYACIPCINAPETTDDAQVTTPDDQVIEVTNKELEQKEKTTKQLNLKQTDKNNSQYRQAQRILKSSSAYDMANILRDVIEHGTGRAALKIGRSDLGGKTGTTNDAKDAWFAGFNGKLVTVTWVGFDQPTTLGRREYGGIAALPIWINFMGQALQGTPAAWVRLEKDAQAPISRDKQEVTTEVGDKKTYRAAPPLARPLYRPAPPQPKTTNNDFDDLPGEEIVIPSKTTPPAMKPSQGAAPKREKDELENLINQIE
Summary of the method: (§1)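 Purified PBPs pre-incubated with inhibitor (E. coli PBP3 1.5 μM, 30 min; P. aeruginosa PBP3 0.75 μM, A. baumannii PBP1a 1 μM and PBP3 0.2 μM, 15 min), then Bocillin-FL 0.1 μM (0.05 μM for PBP1a) added; FP read up to 60 min. EC50 = concentration halving bound Bocillin-FL.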

[2] = biological target: T2, PBP3 from Acinetobacter baumannii (ATCC 19606) (Acinetobacter baumannii, UniProt A0ABX6CK25); experiment: Bocillin-FL fluorescence polarization competition binding, A. baumannii PBP3; settings: fluorescence polarization competition binding assay using Bocillin-FL; read-out: A. baumannii PBP3 Potency
T2 sequence (A0ABX6CK25 64-610): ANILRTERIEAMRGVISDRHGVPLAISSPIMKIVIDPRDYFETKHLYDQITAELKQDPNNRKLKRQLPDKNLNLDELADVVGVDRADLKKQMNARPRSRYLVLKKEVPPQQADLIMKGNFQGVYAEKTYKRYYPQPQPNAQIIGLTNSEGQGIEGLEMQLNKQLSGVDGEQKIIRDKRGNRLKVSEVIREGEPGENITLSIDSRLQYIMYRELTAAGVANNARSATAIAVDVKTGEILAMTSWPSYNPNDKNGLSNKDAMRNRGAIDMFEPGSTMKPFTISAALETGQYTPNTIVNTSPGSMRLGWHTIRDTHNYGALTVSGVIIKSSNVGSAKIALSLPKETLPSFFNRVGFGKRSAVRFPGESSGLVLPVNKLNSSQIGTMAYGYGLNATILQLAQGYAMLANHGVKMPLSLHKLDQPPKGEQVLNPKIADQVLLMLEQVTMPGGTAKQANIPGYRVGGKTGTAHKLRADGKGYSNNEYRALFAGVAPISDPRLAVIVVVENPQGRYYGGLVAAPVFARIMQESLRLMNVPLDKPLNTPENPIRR
Summary of the method: as §1

[3] = read-out: Minimum Inhibitory Concentration, WHO L
[4] = read-out: Minimum Inhibitory Concentration (MIC), N. gonorrhoeae WHO L

Compound | MIC (N. gonorrhoeae WHO L; [3]) | IC50 [1] | IC50 [2] | MIC (N. gonorrhoeae WHO L; [4])
O=C(NCCCS(=O)(=O)N1CCN(C(=O)NC(C(=O)N[C@H]2Cc3ccc(F)c(C(=O)O)c3OB2O)c2cc(F)c(O)c(O)c2Cl)C1=O)Nc1ccc(O)cc1 (stereo partly drawn) [Example 276, (3R)-3-(2-(2-chloro-5-fluoro-3,4-dihydroxyphenyl)-2-(3-((3-(3-(4-hydroxyphenyl)ureido)propyl)sulfonyl)-2-oxoimidazolidine-1-carboxamido)acetamido)-7-fluoro-2-hydroxy-3,4-dihydro-2H-benzo[e][1,2]oxaborinine-8-carboxylic acid] | > 64 µg/mL | > 250 µM | < 10 µM | 
O=C(NCCS(=O)(=O)N1CCN(C(=O)NC(C(=O)N[C@H]2Cc3ccc(F)c(C(=O)O)c3OB2O)c2cc(F)c(O)c(O)c2Cl)C1=O)c1cccnc1 (stereo partly drawn) [Example 262, (3R)-3-(2-(2-chloro-5-fluoro-3,4-dihydroxyphenyl)-2-(3-((2-(nicotinamido)ethyl)sulfonyl)-2-oxoimidazolidine-1-carboxamido)acetamido)-7-fluoro-2-hydroxy-3,4-dihydro-2H-benzo[e][1,2]oxaborinine-8-carboxylic acid] | > 64 µg/mL | > 250 µM | < 10 µM | 
O=C(NCCCN1CCN(C(=O)NC(C(=O)N[C@H]2Cc3ccc(F)c(C(=O)O)c3OB2O)c2cc(F)c(O)c(O)c2Cl)C(=O)C1=O)c1ccccc1 (stereo partly drawn) [Example 202, (3R)-3-(2-(4-(3-benzamidopropyl)-2,3-dioxopiperazine-1-carboxamido)-2-(2-chloro-5-fluoro-3,4-dihydroxyphenyl)acetamido)-7-fluoro-2-hydroxy-3,4-dihydro-2H-benzo[e][1,2]oxaborinine-8-carboxylic acid] |  | > 250 µM | < 10 µM | > 64 µg/mL
O=C(NCCS(=O)(=O)N1CCN(C(=O)N[C@@H](C(=O)N[C@H]2Cc3ccc(F)c(C(=O)O)c3OB2O)c2cc(F)c(O)c(O)c2Cl)C1=O)Nc1cccnc1 [Example 267, (R)-3-((R)-2-(2-chloro-5-fluoro-3,4-dihydroxyphenyl)-2-(2-oxo-3-((2-(3-(pyridin-3-yl)ureido)ethyl)sulfonyl)imidazolidine-1-carboxamido)acetamido)-7-fluoro-2-hydroxy-3,4-dihydro-2H-benzo[e][1,2]oxaborinine-8-carboxylic acid] | > 64 µg/mL | > 250 µM | < 10 µM | 
O=C(O)c1c(F)ccc2c1OB(O)[C@@H](NC(=O)C(NC(=O)N1CCN(S(=O)(=O)CCCNC(=O)[C@@H]3CCCN3)C1=O)c1cc(F)c(O)c(O)c1Cl)C2 (stereo partly drawn) [Example 275, (3R)-3-(2-(2-chloro-5-fluoro-3,4-dihydroxyphenyl)-2-(2-oxo-3-((3-((S)-pyrrolidine-2-carboxamido)propyl)sulfonyl)imidazolidine-1-carboxamido)acetamido)-7-fluoro-2-hydroxy-3,4-dihydro-2H-benzo[e][1,2]oxaborinine-8-carboxylic acid] | > 64 µg/mL | > 250 µM | < 10 µM | 
O=C(CN1CCN(C(=O)NC(C(=O)N[C@H]2Cc3ccc(F)c(C(=O)O)c3OB2O)c2cc(F)c(O)c(O)c2Cl)C(=O)C1=O)NCc1cccc(O)c1 (stereo partly drawn) [Example 237, (3R)-3-(2-(2-chloro-5-fluoro-3,4-dihydroxyphenyl)-2-(4-(2-((3-hydroxybenzyl)amino)-2-oxoethyl)-2,3-dioxopiperazine-1-carboxamido)acetamido)-7-fluoro-2-hydroxy-3,4-dihydro-2H-benzo[e][1,2]oxaborinine-8-carboxylic acid] |  | > 250 µM | < 10 µM | > 64 µg/mL
CN(CCN1CCN(C(=O)N[C@@H](C(=O)N[C@H]2Cc3ccc(F)c(C(=O)O)c3OB2O)c2cc(F)c(O)c(O)c2Cl)C(=O)C1=O)Cc1ccc(N)nc1 [Example 209, (R)-3-((R)-2-(4-(2-(((6-aminopyridin-3-yl)methyl)(methyl)amino)ethyl)-2,3-dioxopiperazine-1-carboxamido)-2-(2-chloro-5-fluoro-3,4-dihydroxyphenyl)acetamido)-7-fluoro-2-hydroxy-3,4-dihydro-2H-benzo[e][1,2]oxaborinine-8-carboxylic acid] |  | > 250 µM | < 10 µM | > 64 µg/mL
O=C(O)c1cccc2c1OB(O)[C@@H](NC(=O)[C@H](NC(=O)c1cnc3n(c1=O)CCS3)c1ccc(P(=O)(O)O)cc1)C2 (single isomer, unassigned) [Example 197] |  |  |  | 16 to 32 µg/mL (≈ 26.7 to 53.3 µM)
CN(CCN1CCN(C(=O)N[C@@H](C(=O)N[C@H]2Cc3ccc(F)c(C(=O)O)c3OB2O)c2cc(F)c(O)c(O)c2Cl)C(=O)C1=O)Cc1cncc(O)c1 [Example 208, (R)-3-((R)-2-(2-chloro-5-fluoro-3,4-dihydroxyphenyl)-2-(4-(2-(((5-hydroxypyridin-3-yl)methyl)(methyl)amino)ethyl)-2,3-dioxopiperazine-1-carboxamido)acetamido)-7-fluoro-2-hydroxy-3,4-dihydro-2H-benzo[e][1,2]oxaborinine-8-carboxylic acid] |  |  | < 10 µM | > 64 µg/mL
O=C(O)c1cccc2c1OB(O)[C@@H](NC(=O)[C@@H](NC(=O)c1cnc3n(c1=O)CCS3)c1ccc(P(=O)(O)O)cc1)C2 (single isomer, unassigned) [Example 196] |  |  |  | 16 to 32 µg/mL (≈ 26.7 to 53.3 µM)
O=C(NCCCN1CCN(C(=O)NC(C(=O)N[C@H]2Cc3ccc(F)c(C(=O)O)c3OB2O)c2cc(F)c(O)c(O)c2Cl)C(=O)C1=O)c1cccc(O)c1 (stereo partly drawn) [Example 204, (3R)-3-(2-(2-chloro-5-fluoro-3,4-dihydroxyphenyl)-2-(4-(3-(3-hydroxybenzamido)propyl)-2,3-dioxopiperazine-1-carboxamido)acetamido)-7-fluoro-2-hydroxy-3,4-dihydro-2H-benzo[e][1,2]oxaborinine-8-carboxylic acid] |  |  | < 10 µM | > 64 µg/mL
CCN1CCN(C(=O)NC(C(=O)N[C@H]2Cc3cccc(C(=O)O)c3OB2O)c2ccc(P(=O)(O)O)c(F)c2O)C(=O)C1=O (stereo partly drawn) [Example 198, (3R)-3-(2-(4-ethyl-2,3-dioxopiperazine-1-carboxamido)-2-(3-fluoro-2-hydroxy-4-phosphonophenyl)acetamido)-2-hydroxy-3,4-dihydro-2H-benzo[e][1,2]oxaborinine-8-carboxylic acid] |  |  |  | 1 to 2 µg/mL (≈ 1.61 to 3.21 µM)
O=C(NCCN1CCN(C(=O)NC(C(=O)N[C@H]2Cc3ccc(F)c(C(=O)O)c3OB2O)c2cc(F)c(O)c(O)c2Cl)C1=O)Nc1cccc(O)c1 (stereo partly drawn) [Example 249, (3R)-3-(2-(2-chloro-5-fluoro-3,4-dihydroxyphenyl)-2-(3-(2-(3-(3-hydroxyphenyl)ureido)ethyl)-2-oxoimidazolidine-1-carboxamido)acetamido)-7-fluoro-2-hydroxy-3,4-dihydro-2H-benzo[e][1,2]oxaborinine-8-carboxylic acid] | > 64 µg/mL |  | < 10 µM | 
O=C(CN1CCN(C(=O)NC(C(=O)N[C@H]2Cc3ccc(F)c(C(=O)O)c3OB2O)c2cc(F)c(O)c(O)c2Cl)C(=O)C1=O)NCc1ccc(O)cc1 (stereo partly drawn) [Example 236, (3R)-3-(2-(2-chloro-5-fluoro-3,4-dihydroxyphenyl)-2-(4-(2-((4-hydroxybenzyl)amino)-2-oxoethyl)-2,3-dioxopiperazine-1-carboxamido)acetamido)-7-fluoro-2-hydroxy-3,4-dihydro-2H-benzo[e][1,2]oxaborinine-8-carboxylic acid] |  | > 250 µM | < 10 µM | 

Reference: patent publication US20240270762A1, “PENICILLIN-BINDING PROTEIN INHIBITORS” (priority 2021, published 2024)
